According to ChEMBL document CHEMBL1201862, “PubChem BioAssay data set” (2004):
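Briefly, cells in 96-well plates were exposed to five compound concentrations for 48 h, and endpoints were estimated by linear interpolation. Here, GI50 denotes the concentration required for 50% inhibition of growth.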 Activity calls are given as the source filed them. No stated cut-off is given here; in the data, active = GI50 up to about 1.1 µM and inactive = higher.

Assays:
Experiment in all cases: NCI anticancer screen, dose series, 48 h
HCT-116 = system: HCT-116
HCT-15 = system: HCT-15
Hs-578T = system: Hs-578T
IGROV-1 = system: IGROV-1
K562 = system: K562
MOLT-4 = system: MOLT-4
NCI-H460 = system: NCI-H460
NCI-H522 = system: NCI-H522
NCI/ADR-RES = system: NCI/ADR-RES
PC-3 = system: PC-3
RXF 393 = system: RXF 393
SF-268 = system: SF-268
SK-OV-3 = system: SK-OV-3
SN12C = system: SN12C
T47D = system: T47D
UACC-257 = system: UACC-257
HCC 2998 = system: HCC 2998
MDA-MB-435 = system: MDA-MB-435
NCI-H23 = system: NCI-H23

| Structure (SMILES) | GI50 (HCT-116) | GI50 (HCT-15) | GI50 (Hs-578T) | GI50 (IGROV-1) | GI50 (K562) | GI50 (MOLT-4) | GI50 (NCI-H460) | GI50 (NCI-H522) | GI50 (NCI/ADR-RES) | GI50 (PC-3) | GI50 (RXF 393) | GI50 (SF-268) | GI50 (SK-OV-3) | GI50 (SN12C) | GI50 (T47D) | GI50 (UACC-257) | GI50 (HCC 2998) | GI50 (MDA-MB-435) | GI50 (NCI-H23) |
| --- | --- | --- | --- | --- | --- | --- | --- | --- | --- | --- | --- | --- | --- | --- | --- | --- | --- | --- | --- |
| Cc1c(C)c(C)c(CC2(C)CSC2)c(CC2(C)CSC2)c1C | > 100 µM (inactive) | > 100 µM | > 100 µM (inactive) | > 100 µM (inactive) | > 100 µM (inactive) | > 100 µM (inactive) | > 100 µM (inactive) | > 100 µM (inactive) | > 100 µM (inactive) | > 100 µM (inactive) | > 100 µM (inactive) | > 100 µM (inactive) | > 100 µM (inactive) | > 100 µM (inactive) | > 100 µM (inactive) | > 100 µM (inactive) | – | – | – |
| CN(/N=C/C=N/N(C)C1=NCCCN1)C1=NCCCN1 | > 100 µM (inactive) | > 100 µM | > 100 µM (inactive) | > 100 µM (inactive) | > 100 µM (inactive) | > 100 µM (inactive) | > 100 µM (inactive) | > 100 µM (inactive) | > 100 µM (inactive) | > 100 µM (inactive) | > 100 µM (inactive) | > 100 µM (inactive) | > 100 µM (inactive) | > 100 µM (inactive) | – | > 100 µM (inactive) | > 100 µM (inactive) | > 100 µM (inactive) | > 100 µM (inactive) |
| CN(C)P(=O)(Oc1occc1C(O)Cc1ccccc1)N(C)C (centres undefined) | > 100 µM (inactive) | > 100 µM | – | – | – | – | > 100 µM (inactive) | > 100 µM (inactive) | > 100 µM (inactive) | > 100 µM (inactive) | > 100 µM (inactive) | > 100 µM (inactive) | > 100 µM (inactive) | > 100 µM (inactive) | > 100 µM (inactive) | > 100 µM (inactive) | > 100 µM (inactive) | > 100 µM (inactive) | > 100 µM (inactive) |
| C[n+]1c(-c2ccc(/C=N\Nc3ccnc(N/N=C/c4ccc(-c5cn6ccsc6[n+]5C)cc4)n3)cc2)cn2ccsc21 | – | 64.4 µM | 84.1 µM (inactive) | 11.2 µM (inactive) | 8.71 µM (inactive) | 24.2 µM (inactive) | 23 µM (inactive) | > 100 µM (inactive) | 51.2 µM (inactive) | 48.3 µM (inactive) | 18.3 µM (inactive) | – | > 100 µM (inactive) | 27.1 µM (inactive) | – | 17.7 µM (inactive) | 37.2 µM (inactive) | 2.24 µM (inactive) | 11.5 µM (inactive) |
| CC1(C)C(c2ccccc2)C12CCC1(C2=O)C(c2ccccc2)C1(C)C (centres undefined) | 16.6 µM (inactive) | 24.2 µM | – | 31.8 µM (inactive) | 20 µM (inactive) | 18.9 µM (inactive) | – | 13.5 µM (inactive) | – | – | 20.1 µM (inactive) | 29.4 µM (inactive) | – | 27.1 µM (inactive) | – | 17.9 µM (inactive) | 18.4 µM (inactive) | – | 18.9 µM (inactive) |
| c1ccc(CCN2CCc3[nH]c4ccccc4c3C2)cc1 | 14.5 µM (inactive) | 23.4 µM | – | 23.9 µM (inactive) | 16.9 µM (inactive) | 26.5 µM (inactive) | 13.7 µM (inactive) | – | 20.3 µM (inactive) | – | 17.5 µM (inactive) | 71.1 µM (inactive) | 35.8 µM (inactive) | 27.9 µM (inactive) | 20.1 µM (inactive) | 14.9 µM (inactive) | 16.3 µM (inactive) | 17.4 µM (inactive) | 30.5 µM (inactive) |
| COc1cc(C23OCC(Cc4cc5c(cc42)OCO5)C3CO)cc(OC)c1OC (centres undefined) | 2.89 µM (inactive) | 0.538 µM | 18.5 µM (inactive) | 2.44 µM (inactive) | 3.89 µM (inactive) | 13.2 µM (inactive) | 3.23 µM (inactive) | 2.22 µM (inactive) | 1.84 µM (inactive) | 1.85 µM (inactive) | 2.02 µM (inactive) | 4.82 µM (inactive) | 3.19 µM (inactive) | – | – | > 100 µM (inactive) | 0.24 µM (active) | 0.119 µM (active) | 3.45 µM (inactive) |
| N=c1c2ccccc2nc2oc3ccccc3n12 | 36.6 µM (inactive) | > 100 µM | 20.6 µM (inactive) | 20.6 µM (inactive) | > 100 µM (inactive) | – | > 10 µM (inactive) | – | 31.5 µM (inactive) | 85.1 µM (inactive) | – | 14.9 µM (inactive) | 40.6 µM (inactive) | > 100 µM (inactive) | – | 68.1 µM (inactive) | > 100 µM (inactive) | > 100 µM (inactive) | 35.2 µM (inactive) |
| O=P(O)(O)C(N=C(Nc1ccccc1)Nc1ccccc1)P(=O)(O)O | > 100 µM (inactive) | > 100 µM | > 100 µM (inactive) | > 100 µM (inactive) | – | – | > 100 µM (inactive) | > 100 µM (inactive) | > 100 µM (inactive) | > 100 µM (inactive) | > 100 µM (inactive) | > 100 µM (inactive) | > 100 µM (inactive) | – | – | > 100 µM (inactive) | > 100 µM (inactive) | – | > 100 µM (inactive) |
